Experimental findings from ChEMBL document CHEMBL4808162, “Constraining the Side Chain of C-Terminal Amino Acids in Apelin-13 Greatly Increases Affinity, Modulates Signaling, and Improves the Pharmacokinetic Profile” (J Med Chem, 2021) are described below.

pEC50, pKi: −log10 of the molar value.

Assay [1] deals with T1, Apelin receptor (Homo sapiens, UniProt P35414).
T1 sequence (P35414 whole entry): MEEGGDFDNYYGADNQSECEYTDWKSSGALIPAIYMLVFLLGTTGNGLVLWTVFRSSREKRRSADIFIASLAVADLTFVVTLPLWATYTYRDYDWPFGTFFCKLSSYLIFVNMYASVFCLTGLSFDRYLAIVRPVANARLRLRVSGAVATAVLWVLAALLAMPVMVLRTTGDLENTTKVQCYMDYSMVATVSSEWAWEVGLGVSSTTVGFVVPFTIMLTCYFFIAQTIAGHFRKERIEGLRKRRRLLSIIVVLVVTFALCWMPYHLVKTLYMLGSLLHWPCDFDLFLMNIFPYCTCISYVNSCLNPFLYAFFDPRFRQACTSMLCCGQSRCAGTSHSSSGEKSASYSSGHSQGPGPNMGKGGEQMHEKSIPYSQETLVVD
As to the kind of experiment: Displacement of [125I] [NIe75,Tyr77]Pyr-apelin-13 from YFP-tagged human APJ receptor expressed in HEK293 cells incubated for 1 hr by gamma counting analysis. It is filed as cell-based.

Assay [2] addresses T1, Apelin receptor. Briefly: Agonist activity at human APJ receptor expressed in HEK293T cells co-expressing Galphai1 RlucII assessed as dissociation of Galphai1 from Gbetta/gamma subunit measured using coelenterazine luciferase substrate incubated for 5 mins by BRET assay. It is filed as functional, cell-based, HEK293.
For assay [3], the target named is T1, Apelin receptor. As to the kind of experiment: Agonist activity at human APJ receptor expressed in HEK293T cells co-expressing PDZ-Rho-Gef-RLucll and rGFP-CAAX assessed as induction of recruitment of Galpha12 to cell membrane using coelenterazine luciferase substrate incubated for 5 mins by BRET assay. The format is functional, cell-based, HEK293.
Assay [4] addresses T1, Apelin receptor. Briefly: Agonist activity at human APJ receptor expressed in HEK293 cells co-expressing Rlucll-beta-arrestin2 assessed as induction of beta-arrestin2 recruitment to receptor incubated for 30 mins by BRET assay. It is filed as functional, cell-based.

The compound `CCCC[C@H](NC(=O)[C@@H]1CCCN1C(=O)CNC(=O)[C@H](CCCCN)NC(=O)[C@H](Cc1cnc[nH]1)NC(=O)[C@H](CO)NC(=O)[C@H](CC(C)C)NC(=O)[C@H](CCCNC(=N)N)NC(=O)[C@@H]1CCCN1C(=O)[C@H](CCCNC(=N)N)NC(=O)[C@@H]1CCC(=O)N1)C(=O)N1CCC[C@H]1C(=O)N[C@@](C)(Cc1ccc(OCc2ccccc2)cc1)C(=O)O` had a pKi in assay [1] of 9.00. Besides, the pEC50 in assay [2] is 7.72; in assay [3] it was 7.96; in assay [4], 6.24.
The compound `CCCC[C@H](NC(=O)[C@@H]1CCCN1C(=O)CNC(=O)[C@H](CCCCN)NC(=O)[C@H](Cc1cnc[nH]1)NC(=O)[C@H](CO)NC(=O)[C@H](CC(C)C)NC(=O)[C@H](CCCNC(=N)N)NC(=O)[C@@H]1CCCN1C(=O)[C@H](CCCNC(=N)N)NC(=O)[C@@H]1CCC(=O)N1)C(=O)N1CCC[C@H]1C(=O)N[C@H](C(=O)O)C(C)(C)c1ccccc1` gave a negative logarithm of the Ki (pKi) in assay [1] of 9.44. The pEC50 in assay [2] was 8.62; in assay [3] it was 7.17; in assay [4], 7.16.
As to `CCCC[C@H](NC(=O)[C@@H]1CCCN1C(=O)CNC(=O)[C@H](CCCCN)NC(=O)[C@H](Cc1cnc[nH]1)NC(=O)[C@H](CO)NC(=O)[C@H](CC(C)C)NC(=O)[C@H](CCCNC(=N)N)NC(=O)[C@@H]1CCCN1C(=O)[C@H](CCCNC(=N)N)NC(=O)[C@@H]1CCC(=O)N1)C(=O)N1CCC[C@H]1C(=O)N[C@H](Cc1cccc(OCc2ccccc2)c1)C(=O)O`, the pKi in assay [1] (hek293) is 9.34. Moreover, the pEC50 is 8.42 in assay [2] (hek293), 7.35 in assay [3] (hek293) and 6.97 in assay [4] (hek293).
The compound `CCCC[C@H](NC(=O)[C@@H]1CCCN1C(=O)CNC(=O)[C@H](CCCCN)NC(=O)[C@H](Cc1cnc[nH]1)NC(=O)[C@H](CO)NC(=O)[C@H](CC(C)C)NC(=O)[C@H](CCCNC(=N)N)NC(=O)[C@@H]1CCCN1C(=O)[C@H](CCCNC(=N)N)NC(=O)[C@@H]1CCC(=O)N1)C(=O)N1CCC[C@H]1C(=O)N[C@H](C(=O)O)C(C)c1ccccc1` (stereo partly drawn) showed a pKi in assay [1] of 9.43. Further, the values for the pEC50 in assay [2], in assay [3] and in assay [4] were 9.00, 6.97 and 7.40, respectively.
Taken in the same sequence, the figures for `CCCC[C@H](NC(=O)[C@@H]1CCCN1C(=O)CNC(=O)[C@H](CCCCN)NC(=O)[C@H](Cc1cnc[nH]1)NC(=O)[C@H](CO)NC(=O)[C@H](CC(C)C)NC(=O)[C@H](CCCNC(=N)N)NC(=O)[C@@H]1CCCN1C(=O)[C@H](CCCNC(=N)N)NC(=O)[C@@H]1CCC(=O)N1)C(=O)N1CCC[C@H]1C(=O)N1Cc2cc(OCc3ccccc3)ccc2C[C@@H]1C(=O)O` were 9.72, 8.47, 7.66 and 7.35.
In the case of `CCCC[C@H](NC(=O)[C@@H]1CCCN1C(=O)CNC(=O)[C@H](CCCCN)NC(=O)[C@H](Cc1cnc[nH]1)NC(=O)[C@H](CO)NC(=O)[C@H](CC(C)C)NC(=O)[C@H](CCCNC(=N)N)NC(=O)[C@@H]1CCCN1C(=O)[C@H](CCCNC(=N)N)NC(=O)[C@@H]1CCC(=O)N1)C(=O)N1CCC[C@H]1C(=O)N[C@H](Cc1ccc(OCc2ccccc2)cc1)C(=O)O`, the pKi in assay [1] (hek293) is 10.70. The pEC50 in assay [2] (hek293) is 9.30; in assay [3] (hek293) it was 7.96; in assay [4] (hek293), 7.85.
`CCCC[C@H](NC(=O)[C@@H]1CCCN1C(=O)CNC(=O)[C@H](CCCCN)NC(=O)[C@H](Cc1cnc[nH]1)NC(=O)[C@H](CO)NC(=O)[C@H](CC(C)C)NC(=O)[C@H](CCCNC(=N)N)NC(=O)[C@@H]1CCCN1C(=O)[C@H](CCCNC(=N)N)NC(=O)[C@@H]1CCC(=O)N1)C(=O)N1CC[C@H](c2ccccc2)[C@@H]1C(=O)N[C@@H](Cc1ccccc1)C(=O)O` gave a negative logarithm of the Ki (pKi) in assay [1] of 8.38. For the same compound, the pEC50 in assay [2] is 7.77; in assay [3] it was 7.32; in assay [4], 6.34.
As for `CCCC[C@H](NC(=O)[C@@H]1CCCN1C(=O)CNC(=O)[C@H](CCCCN)NC(=O)[C@H](Cc1cnc[nH]1)NC(=O)[C@H](CO)NC(=O)[C@H](CC(C)C)NC(=O)[C@H](CCCNC(=N)N)NC(=O)[C@@H]1CCCN1C(=O)[C@H](CCCNC(=N)N)NC(=O)[C@@H]1CCC(=O)N1)C(=O)N1CCC[C@H]1C(=O)N[C@H]1Cc2c(ccc3ccccc23)CN(CC(=O)O)C1=O`, the pKi in assay [1] was 8.77. Moreover, the pEC50 in assay [2] is 8.19; in assay [3], 7.13; in assay [4] it was 6.66.
In turn, `CCCC[C@H](NC(=O)[C@@H]1CCCN1C(=O)CNC(=O)[C@H](CCCCN)NC(=O)[C@H](Cc1cnc[nH]1)NC(=O)[C@H](CO)NC(=O)[C@H](CC(C)C)NC(=O)[C@H](CCCNC(=N)N)NC(=O)[C@@H]1CCCN1C(=O)[C@H](CCCNC(=N)N)NC(=O)[C@@H]1CCC(=O)N1)C(=O)N1Cc2ccccc2C[C@@H]1C(=O)N[C@@H](Cc1ccccc1)C(=O)O` had a pKi in assay [1] of 8.01. In addition, the pEC50 in assay [2] was 8.02; in assay [3], 7.17; in assay [4] it was 6.85.
Consider `CCCC[C@H](NC(=O)[C@@H]1CCCN1C(=O)CNC(=O)[C@H](CCCCN)NC(=O)[C@H](Cc1cnc[nH]1)NC(=O)[C@H](CO)NC(=O)[C@H](CC(C)C)NC(=O)[C@H](CCCNC(=N)N)NC(=O)[C@@H]1CCCN1C(=O)[C@H](CCCNC(=N)N)NC(=O)[C@@H]1CCC(=O)N1)C(=O)N1CCC[C@H]1C(=O)N1C[C@@H](OCc2ccccc2)C[C@@H]1C(=O)O`, for which, in assay [1], the pKi was 8.21. Besides, the negative logarithm of the EC50 (pEC50) in assay [2] was 8.19; in assay [3], 7.20; in assay [4] it was 6.72.
The like results for `CCCC[C@H](NC(=O)[C@@H]1CCCN1C(=O)CNC(=O)[C@H](CCCCN)NC(=O)[C@H](Cc1cnc[nH]1)NC(=O)[C@H](CO)NC(=O)[C@H](CC(C)C)NC(=O)[C@H](CCCNC(=N)N)NC(=O)[C@@H]1CCCN1C(=O)[C@H](CCCNC(=N)N)NC(=O)[C@@H]1CCC(=O)N1)C(=O)N1CCC[C@H]1C(=O)N[C@H](Cc1ccc(OCc2ccccc2)c(C2CCCC2)c1)C(=O)O` were, in that order, 9.39, 8.24, 7.28 and 7.16.
In assay [1] (hek293), `CCCC[C@H](NC(=O)[C@@H]1CCCN1C(=O)CNC(=O)[C@H](CCCCN)NC(=O)[C@H](Cc1cnc[nH]1)NC(=O)[C@H](CO)NC(=O)[C@H](CC(C)C)NC(=O)[C@H](CCCNC(=N)N)NC(=O)[C@@H]1CCCN1C(=O)[C@H](CCCNC(=N)N)NC(=O)[C@@H]1CCC(=O)N1)C(=O)N1CCC[C@H]1C(=O)N[C@H](Cc1ccc(-c2ccccc2)cc1)C(=O)O` had a pKi of 9.46. The results for the pEC50 in assay [2] (hek293), in assay [3] (hek293) and in assay [4] (hek293) were 8.68, 7.68 and 7.19, respectively.
For `CCCC[C@H](NC(=O)[C@@H]1CCCN1C(=O)CNC(=O)[C@H](CCCCN)NC(=O)[C@H](Cc1cnc[nH]1)NC(=O)[C@H](CO)NC(=O)[C@H](CC(C)C)NC(=O)[C@H](CCCNC(=N)N)NC(=O)[C@@H]1CCCN1C(=O)[C@H](CCCNC(=N)N)NC(=O)[C@@H]1CCC(=O)N1)C(=O)N1CCC[C@H]1C(=O)N[C@H](Cc1cc(C2CCCC2)c(O)c(C2CCCC2)c1)C(=O)O`, in assay [1], the pKi was 8.80. The values for the pEC50 in assay [2], in assay [3] and in assay [4] were 7.80, 6.95 and 6.44, respectively.
`CCCC[C@H](NC(=O)[C@@H]1CCCN1C(=O)CNC(=O)[C@H](CCCCN)NC(=O)[C@H](Cc1cnc[nH]1)NC(=O)[C@H](CO)NC(=O)[C@H](CC(C)C)NC(=O)[C@H](CCCNC(=N)N)NC(=O)[C@@H]1CCCN1C(=O)[C@H](CCCNC(=N)N)NC(=O)[C@@H]1CCC(=O)N1)C(=O)N1CCC[C@H]1C(=O)N[C@H](Cc1cccc(-c2ccccc2)c1)C(=O)O` gave a pKi in assay [1] (hek293) of 9.51. The pEC50 in assay [2] (hek293) was 8.85; in assay [3] (hek293), 7.62; in assay [4] (hek293), 7.33.
The compound `CCCC[C@H](NC(=O)[C@@H]1CCCN1C(=O)CNC(=O)[C@H](CCCCN)NC(=O)[C@H](Cc1cnc[nH]1)NC(=O)[C@H](CO)NC(=O)[C@H](CC(C)C)NC(=O)[C@H](CCCNC(=N)N)NC(=O)[C@@H]1CCCN1C(=O)[C@H](CCCNC(=N)N)NC(=O)[C@@H]1CCC(=O)N1)C(=O)N1CCC[C@H]1C(=O)N[C@H]1Cc2c([nH]c3ccccc23)CN(CC(=O)O)C1=O` gave a pKi in assay [1] of 8.37. The pEC50 was 8.17 in assay [2], 6.32 in assay [3] and 6.51 in assay [4].
For the compound `CCCC[C@H](NC(=O)[C@@H]1CCCN1C(=O)CNC(=O)[C@H](CCCCN)NC(=O)[C@H](Cc1cnc[nH]1)NC(=O)[C@H](CO)NC(=O)[C@H](CC(C)C)NC(=O)[C@H](CCCNC(=N)N)NC(=O)[C@@H]1CCCN1C(=O)[C@H](CCCNC(=N)N)NC(=O)[C@@H]1CCC(=O)N1)C(=O)N[C@H](Cc1ccc2ccccc2c1)C(=O)N1Cc2ccccc2C[C@@H]1C(=O)O`, the pKi in assay [1] is 9.43. In addition, the pEC50 is 8.37 in assay [2] and 7.03 in assay [4].
